These results are taken from paper PMC5342446, “Healthy CD4^+ T lymphocytes are not affected by targeted therapies against the PI3K/Akt/mTOR pathway in T-cell acute lymphoblastic leukemia” (Oncotarget, 2016).

pIC50: −log10 of the molar value. Residues, ends and D or L forms follow the SMILES beside them. *: point of attachment. Cbz = O=C(OCc1ccccc1)*; CH2F = FC*

Test [1] deals with stimulated T lymphocytes. Kind of test: MTT cell viability assay, stimulated (phytohemagglutinin) CD4+ T lymphocytes. The format is cell-based, human. The note with it: for effect on cell viability, alone: 24 h; for pIC50: Homo sapiens, T-lymphocyte, 48 h, read-out: IC50 values of cells treated for 48 hours. How it is done:
(§1) To determine how these inhibitors could affect the viability of the primary CD4^+ T lymphocytes (both unstimulated and stimulated) and T-ALL cells, we performed MTT assays. […] Except for the unstimulated T lymphocytes, BGT226 and the mTORC1/2 inhibitor Torin-2 turned out to be the most powerful drugs in these cells. For unstimulated T lymphocytes, there was no relevant inhibition for both drugs (IC50 > 2 μM).
(§2) Peripheral Blood CD4+ T lymphocytes from healthy donors were obtained with informed consent according to institutional guidelines and isolated with Ficoll-Paque and magnetic beads labelling protocols (Dynabeads, Monza MI, Italy). Whole blood or buffy coat were diluted with PBS containing 0.1% BSA and 0.6% Na-citrate or 2 mM EDTA (without Ca2+ and Mg2+) in ratio 1:1. Thirty-five ml of the diluted sample were layered over 15 ml of Ficoll-Paque medium and centrifuged at 600 g for 40 minutes at 20°C. The peripheral blood mononuclear cell (PMNC) layer was transferred to centrifuge tube containing three volumes of PBS and centrifuged at 100 g for 10 minutes at 20°C. This step was repeated twice, supernatant was discarded and cells were suspended in complete RPMI-1640 medium.
(§3) 500 μl PMNC were transferred into a test tube, at a density of 5 × 10^7 cells/ml supplemented with100 μl of heat inactivated FBS and antibody mix and incubated at 4°C for 20 minutes. Followed by addition of 4 ml isolation buffer and centrifuged at 350 g at 4°C for 8 minutes. The supernatant discarded, and the pelleted cells were suspended in 500 μl of isolation buffer, added with 500 μl of pre-warmed dynabeads and incubated for 15 min at 20°C. The cells bound to beads were resuspended using 4 ml isolation buffer. The supernatant containing the human CD4^+ T lymphocytes was obtained by placing the resuspended cells in magnet for 2 minutes. The human CD4^+ T lymphocytes were grown in complete RPMI-1640 medium with 10μg/ml phytohemagglutinin at a density of 1 × 10^6 cells/ml, in a CO2 incubator at 37°C for 24 h.
(§4) MTT (3-[4,5-Dimethylthythiazol-2-yl]-2,5-Diphenyltetrazolium Bromide) assays were performed to assess the sensitivity of cells to drugs, as described.
(In general: Tetrazolium dyes change colour on reduction, which living cells bring about.)

The subject of test [2] is JURKAT cells. The test is described as follows: MTT cell viability assay, JURKAT. Format: cell-based, human. The following applies: for effect on cell viability, alone: 24 h; for pIC50: Homo sapiens, 48 h, read-out: IC50 values of cells treated for 48 hours. The protocol:
as §1
(§5) T-acute lymphoblastic leukemia cell lines obtained from Deutsche Sammlung von Mikroorganismen und Zellkulturen GmbH (Braunschweig, Germany). JURKAT and MOLT-4 were maintained in RPMI-1640 medium supplemented with 10% heat-inactivated fetal bovine serum (FBS), 100 units/ml penicillin and […] streptomycin at a density of 0.5 to 2 × 10^6 cells/ml and were incubated at 37°C with 5% CO2.
as §4

For test [3], the system named is MOLT-4 cells. The test is described as follows: MTT cell viability assay, MOLT-4. The format is cell-based, human. The following applies: for pIC50: Homo sapiens, MOLT-4, MTT, 48 h, read-out: IC50 values of cells treated for 48 hours. The protocol: as §1, §5, §4
The test system of test [4] is unstimulated T lymphocytes. The test is described as follows: MTT cell viability assay, unstimulated CD4+ T lymphocytes. Format: cell-based. The following applies: Homo sapiens, T-lymphocyte, 48 h, read-out: IC50 values of cells treated for 48 hours. How it is done:
To determine how these inhibitors could affect the viability of the primary CD4^+ T lymphocytes (both unstimulated and stimulated) and T-ALL cells, we performed MTT assays. Cells were incubated for 48 h with the inhibitors, and then cell survival was analyzed (Figure 2A and Table 1). Except for the unstimulated T lymphocytes, BGT226 and the mTORC1/2 inhibitor Torin-2 turned out to be the most powerful drugs in these cells. For unstimulated T lymphocytes, there was no relevant inhibition for both drugs (IC50 > 2 μM).
as §2, §3, §4

In the case of `Cn1cnc(N)c2ncnc1-2` [3-MA, 3-Methyladenine], the “effect on cell viability, alone” value in test [1] (even at 10 μM) and in test [2] (even at 10 μM) was “did not affect cell viability” each time.

In the case of `COC(=O)C[C@H](NC(=O)[C@H](C)NC(=O)[C@@H](NC(=O)OCc1ccccc1)C(C)C)C(=O)CF` [z-VAD-fmk] (Cbz-Val-Ala-Asp(OMe)-CH2F), the “effect on cell viability, alone” value in test [1] (25 μM) is “no relevant effect on cell viability”; in test [3] (MOLT-4, alone, 25 μM, 24 h, MTT), “no relevant effect on cell viability”.

Consider `COc1ccc(-c2ccc3ncc4c(c3c2)n(-c2ccc(N3CCNCC3)c(C(F)(F)F)c2)c(=O)n4C)cn1` [BGT226], for which the pIC50 in test [1] is 5.79; in test [3] it was 7.22; in test [4] it was below 5.70; in test [2], 7.10.

For the compound `FC(F)c1nc2ccccc2n1-c1nc(N2CCOCC2)nc(N2CCOCC2)n1` [ZSTK474], the pIC50 in test [1] is below 5.70; in test [3], 6.28; in test [4], below 5.70; in test [2], 6.02.

On to `CO/C1=C\C(C)=C\[C@@H](C)[C@@H](O)[C@@H](C)C/C(C)=C/C=C/[C@H](OC)[C@@H]([C@@H](C)[C@@H](O)[C@H](C)[C@@]2(O)C[C@@H](O)[C@H](C)[C@@H](C(C)C)O2)OC1=O` [Bafilomycin A1], for which the “effect on cell viability, alone” value in test [1] (even at 4 μM) and in test [2] (even at 4 μM) was “did not affect cell viability” each time.

On to `Nc1ccc(-c2ccc3ncc4ccc(=O)n(-c5cccc(C(F)(F)F)c5)c4c3c2)cn1` [Torin-2, 9-(6-aminopyridin-3-yl)-1-(3-(trifluoromethyl)phenyl)benzo[h][1,6]naphthyridin-2(1H)-one], for which the pIC50 in test [1] is 5.74; in test [3] it was 7.00; in test [4], below 5.70; in test [2] it was 7.00.

As to `NC1(c2ccc(-c3nc4ccn5c(=O)[nH]nc5c4cc3-c3ccccc3)cc2)CCC1` [MK-2206], the pIC50 is below 5.70 in test [1], 5.80 in test [3], below 5.70 in test [4] and below 5.70 in test [2].

A word on the pIC50: it is the IC50 on a negative log10 scale, so that one unit is a factor of ten.
